Data from patent US20260053942A1, “STING AGONIST IMMUNOSTIMULATORY ANTIBODY DRUG CONJUGATES” (ASTELLAS PHARAMA INC., priority 2024, published 2026).

Assays:
[1] = system: NCI-H1703 (Trop2-); test: Cell proliferation (cell killing) assay, Cell Titer-Glo, 120 hours; assay type: cell-based, human; conditions: for EC50: Homo sapiens
Description: (§1) The cytotoxicity of the ADCs, iSACs and iADCs was measured in a cell proliferation assay. TROP2 positive NCI-H292, NCI-H441 cells and TROP2 negative NCI-H460 and NCI-H1703 cells were obtained from ATCC (American Type Culture Collection) and maintained in DMEM/F12 (1:1), high glucose (Corning) supplemented with 10% heat-inactivated fetal bovine serum (Thermo Scientific), 2 mM glutamax (Thermo Scientific), and 1× Penicillin/Streptomycin (Corning).
(§2) Cells were collected and counted by the Vi-CELL Cell Viability Analyzers (Beckman Coulter). A total of 7500 cells in a volume of 50 uL were seeded in each well of a 96-well flat bottom white Polystyrene plate. Test articles were diluted at 2× final concentration in the cell culture medium and 50 uL was added into each treatment well. Assay plates were cultured at 37° C. in a CO2 incubator for 120 hours. For cell viability measurement, 60 μL of Cell Titer-Glo® reagent (Promega Corp. Madison, WI) was added into each well, and plates were processed as per product instructions. Relative luminescence was measured on an ENVISION® plate reader (Perkin-Elmer; Waltham, MA). Relative luminescence readings were converted to % viability using untreated cells as controls. Data was fitted with non-linear regression analysis, using log(inhibitor) vs. response-variable slope, 4 parameter fit equation using GraphPad Prism (GraphPad v 5.00, Software; San Diego, CA).

[2] = system: NCI-H292 (Trop2+); test: as above; assay type: cell-based, human; conditions: for EC50: Homo sapiens
Description: as §1, §2

[3] = system: NCI-H441 (Trop2+); test: as above; assay type: cell-based, human; conditions: for EC50: Homo sapiens
Description: as §1, §2

[4] = system: NCI-H460 (Trop2-); test: as above; assay type: cell-based, human; conditions: for EC50: Homo sapiens
Description: as §1, §2

[5] = system: TROP2 positive NCI-H292, NCI-H441 cells and TROP2 negative NCI-H460 and NCI-H1703 cells; test: Cell proliferation (cell killing) assay, cell line panel; assay type: cell-based, human; conditions: all TROP2 positive and negative cell lines tested
Description: as §1, §2

[6] = system: NCI-H292 cells; test: NCI-H292/PBMC co-culture: tumor cell killing (NCI-H292 cell count); assay type: cell-based, human; conditions: TROP2 positive NCI-H292/PBMC co-culture
Description: (§3) The ability of different TROP2 iADCs to induce cancer cell killing, immune activation, and cytokine release was evaluated in an in vitro co-culture assay with human cancer cells and human PBMCs.
(§4) Residual RBCs were removed using ACK lysis buffer (Gibco) for 10 minutes, followed by DPBS wash. Isolated PBMCs were counted, resuspended in freezing medium (Sigma) and stored in a freezing vessel at −80° C. for 24 hours before being transferred to vapor-phase liquid nitrogen for long-term storage.
(§5) For the co-culture assay, cancer cells were plated on transparent flat bottom polystyrene plates and allowed to attach overnight. The next day, serially diluted (1:4) test articles were formulated at 3× starting concentration in complete RPMI media and added onto each well. […]
(§6) On the day of sample collection, cell culture supernatants were collected and stored at −80° C. until cytokine release analyses were performed. […] Cells were then washed with FACS buffer again and read on Cytek flow cytometer. […]
(§7) The ability of different TROP2 iADCs to induce cancer cell killing, immune activation, and cytokine release was evaluated in an in vitro co-culture assay with TROP2 positive CaoV3 cells or NCI-H292 cells and human PBMCs. h1925-C06, an anti-TROP2 antibody, was conjugated to LP-C1 on the heavy chain Y180/F404 sites and to different STING agonist linker payloads at light chain K42 sites. […]

[7] = system: human PBMCs; test: NCI-H292/PBMC co-culture: monocyte/immune cell count and activation (FACS); assay type: cell-based; conditions: TROP2 positive NCI-H292/PBMC co-culture
Description: as §3, §4, §5, §6, §7

[8] = system: NCI-H441 cells; test: NCI-H441/PBMC co-culture (title of Table 16): tumor cell killing; assay type: cell-based, human
Description: as §3, §4
(§8) For the co-culture assay, cancer cells were plated on transparent flat bottom polystyrene plates and allowed to attach overnight. The next day, serially diluted (1:4) test articles were formulated at 3× starting concentration in complete RPMI media and added onto each well. Human PBMCs were thawed and resuspended in RPMI supplemented with 10% heat-inactivated fetal bovine serum from Hyclone, 1% Penicillin/Streptomycin and 2 mM/L-glutamax. PBMCs were then added into the same well at a final ratio of PBMCs:cancer cells=30:1. Plates were incubated for 2 or 3 days at 37° C. with 5% CO2 in a cell culture incubator.
as §6

[9] = system: NCI-H441 cells and human PBMCs; test: NCI-H441/PBMC co-culture (title of Table 16): cytokine (IP-10) release; assay type: cell-based; design: key: NC = Not Calculable due to incomplete curve
Description: as §8
(§9) To measure the cytokine released in this assay, customized MSD V-plex plates were ordered to measure human IL6, IP-10, TNFα, IFNγ, IL-1α, MCP-1, MIP1α. The supernatant was thawed and diluted 1:50 using dilution buffer provided by the vendor before being added into the MSD plates. Cytokine measurement in the cell culture supernatant was carried out using protocols provided by the vendor. Raw data generated by the Meso Scale Discovery (MSD®) SQ120 plate reader were imported into MSD Discovery Workbench software. Unknown sample values were interpolated from standard curves by the software and imported into GraphPad Prism. Each cytokine level was fitted with non-linear regression analysis, using log(agonist) vs. response, variable slope, 4-parameter fit equation in GraphPad Prism. […]

[10] = system: NCI-H460 cells; test: NCI-H460/PBMC co-culture (TROP2 negative): tumor cell killing; assay type: cell-based, human
Description: as §3, §4, §8
On the day of sample collection, cell culture supernatants were collected and stored at −80° C. until cytokine release analyses were performed. All the cells in the well were combined (both suspension and adherent cells) and resuspended in 50 μL of PBS containing Live/Dead Fixable Violet Dead Cell Stain (Thermo Fisher) and 1× human Fc block (BD Biosciences) and incubated at 37° C. for 20 minutes. […] After incubation on ice for 1 hour, cells were washed with FACS buffer and fixed with 50 uL/well of 2% PFA (paraformaldehyde) for 20 minutes. Cells were then washed with FACS buffer again and read on Cytek flow cytometer. FACS data analysis was done by Flowjo software to identify monocytes, B cells, CD4+ T cells, CD8+ T cells, NK cells and Dendritic cells and their activation status. Data from Flowjo was exported and plotted using non-linear regression analysis, log(agonist/inhibitor) vs. response, variable slope, 4-parameter fit equation in GraphPad Prism. […]

[11] = system: NCI-H460 cells and human PBMCs; test: NCI-H460/PBMC co-culture (TROP2 negative): cytokine (IP-10) release; assay type: cell-based; design: key: NC = Not Calculable due to incomplete curve
Description: as §8, §9

[12] = system: NCI-H292 cells; test: IP-10 and IL-6 release from TROP2 positive NCI-H292 cells, 120 hours (MSD); assay type: cell-based, human; conditions: for EC50: Homo sapiens
Description: The cell supernatant was collected and IP-10 and IL-6 released in the cell culture medium was measured using Streptavidin single spot 96 well plates, compatible human antibody pairs, and calibrating solutions commercially available from MesoScale Discovery. Raw data generated by the Meso Scale Discovery (MSD®) SQ120 plate reader was imported into MSD Discovery Workbench software. Unknown sample values were interpolated from standard curves by the software and imported into Graphpad Prism. Each cytokine level was fitted with non-linear regression analysis, using log(agonist) vs. response, variable slope, 4-parameter fit equation in GraphPad Prism.

[13] = system: NCI-H292 cells; test: Immunogenic cell death: HMGB1 release in supernatant (sandwich ELISA), 48 hours; assay type: cell-based, human
Description: (§10) Immunogenic cell death elicited by the TROP2 ADC, iSAC, iADCs and exatecan were measured by cell surface translocate of calreticulin and release of HMGB1 in the cell culture supernatant. Briefly, TROP2 positive cell line NCI-H292 were seeded into a 96-well flat bottom plate 4 hours prior to the initialization of the assay. Test articles were formulated at a 2× starting concentration in cell culture medium, and samples were serial diluted (1:3) under sterile conditions and added onto the cells in duplicates. After incubation at 37° C. in a CO2 incubator for 48 hours, the cell supernatant was collected for measuring HMGB1 and the adherent cells were collected for calreticulin expression on the cell surface.
HMGB1 released in the supernatant was assessed via sandwich ELISA using mouse anti-human HMGB1 clone 2F6 (Sigma-Aldrich) as the capture, polyclonal rabbit anti-human HMGB1 (Abcam) as secondary, and polyclonal goat anti-rabbit IgG HRP as the detection antibody. The HMGB1 concentrations in the cell culture medium were calculated based a standard curve built on commercially available recombinant human HMGB1 (R&D Systems).

[14] = system: NCI-H292 cells; test: Immunogenic cell death: cell surface calreticulin (CALR) on live cells (flow cytometry), 48 hours; assay type: cell-based, human; conditions: for induction of CALR on live cells compared to untreated cells: NCI-H292 cells
Description: as §10
NCI-H292 cells were detached using Accutase (Innovative Cell Technologies) and viability was accessed using a 1:500 dilution of Zombie NIR viability dye. […] Surface calreticulin measures on the live cells were gathered using an Attune NXT Flow Cytometer (ThermoFisher Scientific) to obtain median fluorescence intensity values. All data were fitted with non-linear regression analysis, using log(agonist) vs. response, variable slope, 4 parameter fit equation using GraphPad Prism.

[15] = TROP2 positive NCI-H292 cells, read-out: IL-6 Release EC50
[16] = TROP2 positive NCI-H292 cells, read-out: IP-10 Release EC50
[17] = NCI-H292 cells, read-out: IL-6 induction EC50
[18] = NCI-H292 cells, read-out: IP-10 induction EC50

SMILES	Span cell killing [1]	EC50 [1]	Span cell killing [2]	EC50 [2]	Span cell killing [3]	EC50 [3]	Span cell killing [4]	EC50 [4]	cell killing (in words) [5]	EC50 [12, 15]	EC50 [12, 16]	IL-6 Release Span ([12]; TROP2 positive NCI-H292 cells)	IP-10 Release Span ([12]; TROP2 positive NCI-H292 cells)	release of HMGB1 into the cell culture supernatant [13]	HMGB-1 Release Span ([13]; supernatant)	induction of CALR on live cells compared to untreated cells [14]	EC50 [12, 17]	EC50 [12, 18]	further results
CC[C@@]1(O)C(=O)OCc2c1cc1n(c2=O)Cc2c-1nc1cc(F)c(C)c3c1c2[C@@H](N)CC3 [Exatecan, exatecan, reference compound]	95%	1.04 nM	80%	0.88 nM	89%	0.57 nM	83%	0.97 nM	good cell killing	14.7 nM	0.87 nM	1410 pg/mL	203 pg/mL	~70 ng/mL	55 ng/mL	~2 fold	–	–	tumor cell killing (in words) [6]: potent tumor cell killing; immune cell activation and cytokine release (in words) [7]: did not induce activation of any immune populations; IC50 ([8]; Homo sapiens, tumor cell killing, read-out: Cancer Cell Count IC50): 0.44 nM; Cancer Cell Count Span ([8]; Span = Top minus Bottom of dose response curve): 5,749 Cell Count; IP-10 Release Span [9]: NC; IC50 ([10]; Homo sapiens, NCI-H460/PBMC co-culture, TROP2 negative, tumor cell killing, read-out: Cancer Cell Count IC50): 0.38 nM; Cancer Cell Count Span ([10]; NCI-H460/PBMC co-culture, TROP2 negative): 23,530 Cell Count; tumor cell killing (in words) ([10]; TROP2 negative NCI-H460/PBMC co-culture): potent tumor cell killing; IP-10 Release Span [11]: NC; induction of IP-10 and IL-6 release (in words) ([12]; NCI-H292 cells): not; EC50 ([13]; Homo sapiens, supernatant, read-out: HMGB-1 Release EC50): 2.08 nM; EC50 ([14]; Homo sapiens, NCI-H292 live cells, cell surface): 0.19 nM; Calreticulin Span ([14]; NCI-H292 live cells, cell surface): 783 MFI
CCn1nc(C)cc1C(=O)Nc1nc2cc(C(N)=O)ccc2n1C/C=C/Cn1c(NC(=O)c2cc(C)nn2CC)nc2cc(C(N)=O)cc(OCCCN3CC4(CNCCO4)C3)c21 [Compound S-1]	<15%	> 100 nM	<15%	> 100 nM	<15%	> 100 nM	<15%	> 100 nM	did not result in significant cell killing	> 100 nM	> 100 nM	>10000 pg/mL	>4000 pg/mL	30 ng/mL	17 ng/mL	no induction of CALR	> 100 nM	> 100 nM	–
CCn1nc(C)cc1C(=O)Nc1nc2cc(C(N)=O)cc(OC)c2n1C/C=C/Cn1c(NC(=O)c2cc(C)nn2CC)nc2cc(C(N)=O)cc(OCCCN3CCC(c4nnc5n4CCNC5)CC3)c21 [Compound S-3, 1-[(E)-4-[5-Carbamoyl-2-[(2-ethyl-5-methyl-pyrazole-3-carbonyl)amino]-7-[3-[4-(5,6,7,8-tetrahydro-[1,2,4]triazolo[4,3-a]pyrazin-3-yl)-1-piperidyl]propoxy]benzimidazol-1-yl]but-2-enyl]-2-[(2-ethyl-5-methyl-pyrazole-3-carbonyl)amino]-7-methoxy-benzimidazole-5-carboxamide]	<15%	> 100 nM	<15%	> 100 nM	<15%	> 100 nM	<15%	> 100 nM	did not result in significant cell killing	> 100 nM	> 100 nM	>8000 pg/mL	>4000 pg/mL	30 ng/mL	11 ng/mL	no induction of CALR	> 100 nM	> 100 nM	–
